Structures are written as SMILES.

Regarding `*/C(C)=C(/*)CCCCC` (repeat unit), the glass transition temperature was determined as 180.00 °C. In turn, `*=NP(=NP(=NC(=*)Oc1ccc(C(F)(F)F)cc1)(Oc1ccc(C(F)(F)F)cc1)Oc1ccc(C(F)(F)F)cc1)(Oc1ccc(C(F)(F)F)cc1)Oc1ccc(C(F)(F)F)cc1` (repeat unit) yielded a glass transition temperature of 31.00 °C. In the case of `*=NP(=NP(=NC(=*)Oc1ccc(OC)cc1)(Oc1ccc(OC)cc1)Oc1ccc(OC)cc1)(Oc1ccc(OC)cc1)Oc1ccc(OC)cc1` (repeat unit), the glass transition temperature is 37.00 °C. In the case of `*CC(*)(C#N)C(=O)OCCCCCCC` (repeat unit) it was 102.00 °C; in that of `*CC(*)(C)C(=O)NC(=O)OC(C)COc1ccc(S(=O)(=O)c2ccc(OCC(C)O)cc2)cc1` (repeat unit), 73.00 °C.

In turn, `*CC(*)(C)C(=O)NC(C)c1cccc2ccccc12` (repeat unit) came in with a glass transition temperature of 171.00 °C. Turning to `*CC(*)(C)C(=O)NC(C)c1ccccc1` (repeat unit), the glass transition temperature turned out to be 156.50 °C. In the case of `*CC(*)(C)C(=O)O` (repeat unit) it was 161.70 °C; in that of `*CC(*)(C)C(=O)OC(C(F)(F)F)C(F)(F)F` (repeat unit), 75.00 °C.

`*CC(*)(C)C(=O)OC12CC3CC(CC(C3)C1)C2` (repeat unit) displayed a glass transition temperature of 183.00 °C. `*CC(*)(C)C(=O)OC1CC(C)CC(C)(C)C1` (repeat unit): the glass transition temperature was determined as 125.00 °C. In the case of `*CC(*)(C)C(=O)OC1CC2CCC1(C)C2(C)C` (repeat unit) it was 180.50 °C; in that of `*CC(*)(C)C(=O)OC1CCC2CCCCC2C1` (repeat unit), 145.00 °C; in that of `*CC(*)(C)C(=O)OC1CCCC(C)C1` (repeat unit), 89.00 °C. Then `*CC(*)(C)C(=O)OCC(=O)Nc1cc(C)on1` (repeat unit), with 128.00 °C; and `*CC(*)(C)C(=O)OCC(C)(C)C1OCC(C)(C)CO1` (repeat unit), with 118.00 °C. Then `*CC(*)(C)C(=O)OCC(C)Oc1ccc(-c2ccc(-c3ccc(C#N)cc3)cc2)cc1` (repeat unit), with 140.00 °C; and `*CC(*)(C)C(=O)OCC1(C)COCOC1` (repeat unit), with 142.00 °C. The compound `*CC(*)(C)C(=O)OCC1CC(NC(=O)C2CC(NC(=O)OC(C)(C)C)CN2C(=O)OC(C)(C)C)CN1C(=O)C1CC(NC(=O)OC(C)(C)C)CN1C(=O)OC(C)(C)C` (repeat unit) came in with a glass transition temperature of 200.00 °C. The compound `*CC(*)(C)C(=O)OCC1CCC1` (repeat unit) registered a glass transition temperature of 114.00 °C.

Take `*CC(*)(C)C(=O)OCC1COC(CP(=O)(OCC)OCC)O1` (repeat unit): the glass transition temperature amounted to 115.00 °C. `*CC(*)(C)C(=O)OCC1COCCOCCOCCO1` (repeat unit) returned a glass transition temperature of 35.00 °C.

With `*CC(*)(C)C(=O)OCC1OC(n2ccc(=O)[nH]c2=O)C(O)C1O` (repeat unit), the glass transition temperature was determined as 143.50 °C. In the case of `*CC(*)(C)C(=O)OCC=C` (repeat unit) it was 94.00 °C.

`*CC(*)(C)C(=O)OCCBr` (repeat unit) yielded a glass transition temperature of 52.00 °C.

`*CC(*)(C)C(=O)OCCC#N` (repeat unit) showed a glass transition temperature of 91.00 °C. `*CC(*)(C)C(=O)OCCC(C)CC(C)(C)C` (repeat unit): the glass transition temperature was determined as 1.00 °C.

Turning to `*CC(*)(C)C(=O)OCCC1CCCCC1` (repeat unit), the glass transition temperature worked out at 110.00 °C. Consider `*CC(*)(C)C(=O)OCCCCC(F)(F)C(F)(F)C(F)(F)C(F)(F)F` (repeat unit), for which the glass transition temperature is 23.00 °C. Then `*CC(*)(C)C(=O)OCCCCCC(=O)Oc1ccc(OC(=O)c2ccc(OCCCCC)cc2)cc1` (repeat unit), with 50.00 °C; and `*CC(*)(C)C(=O)OCCCCCC(=O)Oc1ccc(OC(=O)c2ccc(OCCCCCC)cc2)cc1` (repeat unit), with 44.00 °C; and `*CC(*)(C)C(=O)OCCCCCCC(F)(F)C(F)(F)C(F)(F)C(F)(F)C(F)(F)C(F)(F)C(F)(F)C(F)(F)C(F)(F)C(F)(F)C(F)(F)C(F)(F)F` (repeat unit), with 84.00 °C.

With `*CC(*)(C)C(=O)OCCCCCCCC/C=C/CCCCCCCC` (repeat unit), the glass transition temperature is -40.00 °C. Then `*CC(*)(C)C(=O)OCCCCCCCCCCCCCC` (repeat unit), with -72.00 °C; and `*CC(*)(C)C(=O)OCCCCCCCCCCCCOc1ccc2cc(C(=O)Oc3ccccc3)ccc2c1` (repeat unit), with 12.00 °C.

In the case of `*CC(*)(C)C(=O)OCCCCCCCCCCCOc1ccc(/N=N/c2ccc(OC(=O)c3ccc4c(c3)OCCOCCOCCOCCO4)cc2)cc1` (repeat unit), the glass transition temperature was determined as 59.00 °C.

The compound `*CC(*)(C)C(=O)OCCCCCCCCCCOc1ccc(/N=N/c2ccc(C3OCC4(CO3)CC3C=CC4C3)cc2)cc1` (repeat unit) gave a glass transition temperature of 103.20 °C.

On to `*CC(*)(C)C(=O)OCCCCCCCCCCOc1ccc(/N=N/c2ccccc2)cc1` (repeat unit), for which the glass transition temperature worked out at 56.00 °C. Then `*CC(*)(C)C(=O)OCCCCCCCCCCOc1ccc(OC(=O)c2ccc(OC)c(Br)c2)cc1` (repeat unit), with 29.00 °C. Then `*CC(*)(C)C(=O)OCCCCCCCCOc1ccc2cc(C(=O)Oc3ccccc3)ccc2c1` (repeat unit), with 34.00 °C; and `*CC(*)(C)C(=O)OCCCCCCCOc1ccc2cc(C(=O)Oc3ccccc3)ccc2c1` (repeat unit), with 40.00 °C; and `*CC(*)(C)C(=O)OCCCCCCOc1ccc(-c2ccc(C#N)cc2)cc1` (repeat unit), with 63.00 °C. In turn, `*CC(*)(C)C(=O)OCCCCCCOc1ccc(/N=N/c2ccc(OC)cc2)cc1` (repeat unit) displayed a glass transition temperature of 91.00 °C.

With `*CC(*)(C)C(=O)OCCCCCCOc1ccc(C(=O)Oc2ccc(-c3cccc(OC(=O)c4ccc(OC(=O)c5ccc(OCCCCCCCCCCCC)cc5)cc4)c3)cc2)cc1` (repeat unit), the glass transition temperature was found to be 73.00 °C. In the case of `*CC(*)(C)C(=O)OCCCCCCOc1ccc(C(=O)Oc2ccc(/N=N/c3ccc(C)cc3)c3ccccc23)cc1` (repeat unit), the glass transition temperature is 40.00 °C. Compound `*CC(*)(C)C(=O)OCCCCCCOc1ccc(C(=O)Oc2ccc(/N=N/c3ccc(Cl)cc3)c3ccccc23)cc1` (repeat unit) showed a glass transition temperature of 50.00 °C.

`*CC(*)(C)C(=O)OCCCCCCOc1ccc(C(=O)Oc2ccc(C#N)cc2)cc1` (repeat unit) displayed a glass transition temperature of 43.00 °C. Then `*CC(*)(C)C(=O)OCCCCCCOc1ccc(OC(=O)c2ccc(OCCCC)cc2)cc1` (repeat unit), with 36.00 °C; and `*CC(*)(C)C(=O)OCCCCCCOc1ccc(OC(=O)c2ccc(OCCCCCC)cc2)cc1` (repeat unit), with 16.00 °C; and `*CC(*)(C)C(=O)OCCCCCCOc1ccc(OC(=O)c2ccc(OCCCCCCCC)cc2)cc1` (repeat unit), with -1.00 °C. In the case of `*CC(*)(C)C(=O)OCCCCCCc1ccc(/N=N/c2ccc(OC(F)(F)F)cc2)cc1` (repeat unit) it was 194.50 °C; in that of `*CC(*)(C)C(=O)OCCCCCOc1ccc2cc(C(=O)Oc3ccccc3)ccc2c1` (repeat unit), 48.00 °C; in that of `*CC(*)(C)C(=O)OCCCCOc1ccc(OC(=O)c2ccc(OC)cc2)cc1` (repeat unit), 57.00 °C. On to `*CC(*)(C)C(=O)OCCCCOc1ccc(OC(=O)c2ccc(OCCCC)cc2)cc1` (repeat unit), for which the glass transition temperature was determined as 51.00 °C. Then `*CC(*)(C)C(=O)OCCCCOc1ccc2cc(C(=O)Oc3ccccc3)ccc2c1` (repeat unit), with 88.00 °C; and `*CC(*)(C)C(=O)OCCCCc1ccc(/N=N/c2ccc(OC(F)(F)F)cc2)cc1` (repeat unit), with 203.50 °C; and `*CC(O)CN(*)c1cc(C)c(/N=N/c2ccc([N+](=O)[O-])cc2C)c(C)c1` (repeat unit), with 149.00 °C. In the case of `*CC(O)CN(*)c1cc(C)cc(C)c1` (repeat unit), the glass transition temperature was determined as 80.00 °C.

`*CC(O)CN(*)c1ccc(/N=N/c2ccc([N+](=O)[O-])cc2C)cc1` (repeat unit) showed a glass transition temperature of 156.00 °C. Then `*CC(O)CN(C)S(=O)(=O)c1cccc(S(=O)(=O)N(C)CC(O)COc2ccc(C(C)(C)c3ccc(O*)cc3)cc2)c1` (repeat unit), with 76.00 °C; and `*CC(O)CN(C)S(=O)(=O)c1cccc(S(=O)(=O)N(C)CC(O)COc2ccc(S(=O)(=O)c3ccc(O*)cc3)cc2)c1` (repeat unit), with 100.00 °C; and `*CC(O)CN(C)S(=O)(=O)c1cccc(S(=O)(=O)N(C)CC(O)COc2ccc(Sc3ccc(O*)cc3)cc2)c1` (repeat unit), with 90.00 °C. In the case of `*CC(OC)C(C(=O)OC)C(*)C(=O)OC` (repeat unit) it was 59.50 °C; in that of `*CCCCCCCCCCN/C(=N/*)c1ccccc1` (repeat unit), 10.00 °C; in that of `*N=P(N=P(/N=S(/*)Oc1ccc(-c2ccccc2)cc1)(Oc1ccc(-c2ccccc2)cc1)Oc1ccc(-c2ccccc2)cc1)(Oc1ccc(-c2ccccc2)cc1)Oc1ccc(-c2ccccc2)cc1` (repeat unit), 69.00 °C.

Compound `*N=P(N=P(N=S(*)(=O)NC)(NC)NC)(NC)NC` (repeat unit) yielded a glass transition temperature of 22.00 °C. In the case of `*N=P(N=P(N=S(*)(=O)NCC)(NCC)NCC)(NCC)NCC` (repeat unit) it was 4.00 °C. `*N=P(N=P(N=S(*)(=O)NCCC)(NCCC)NCCC)(NCCC)NCCC` (repeat unit) yielded a glass transition temperature of 6.00 °C. `*OC(CC(*)=O)C(Cl)(Cl)Cl` (repeat unit): the glass transition temperature is 163.50 °C.
